Data as given in PubChem BioAssay (NCI).
Several values for one entry are separate records, joined by “and”; a condition that tells them apart may be missing. Equal entries are not always repeated.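 Following 48 hours of exposure in 96-well plates, responses at five concentrations were used to interpolate endpoints linearly. At the GI50, growth is halved. TGI marks complete inhibition of growth.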

Columns and labels:
Assay in all cases: DTP human tumour cell line panel, 48 h
T-47D breast = system: T-47D breast
OVCAR-8 ovarian = system: OVCAR-8 ovarian
MOLT-4 leukemia = system: MOLT-4 leukemia
A549 NSCLC = system: A549 NSCLC
SK-OV-3 ovarian = system: SK-OV-3 ovarian
SK-MEL-28 melanoma = system: SK-MEL-28 melanoma
TK-10 renal = system: TK-10 renal
SF-295 CNS = system: SF-295 CNS
LOX IMVI melanoma = system: LOX IMVI melanoma

SMILES | GI50 (T-47D breast) | TGI (T-47D breast) | GI50 (OVCAR-8 ovarian) | TGI (OVCAR-8 ovarian) | GI50 (MOLT-4 leukemia) | TGI (MOLT-4 leukemia) | GI50 (A549 NSCLC) | TGI (A549 NSCLC) | GI50 (SK-OV-3 ovarian) [µM] | TGI (SK-OV-3 ovarian) [µM] | GI50 (SK-MEL-28 melanoma) | TGI (SK-MEL-28 melanoma) | GI50 (TK-10 renal) | TGI (TK-10 renal) | GI50 (SF-295 CNS) | TGI (SF-295 CNS) | GI50 (LOX IMVI melanoma) | TGI (LOX IMVI melanoma)
COc1cc(NS(C)(=O)=O)ccc1Nc1c2ccc([N+](=O)[O-])cc2nc2c(C)cccc12 | 0.117 µM | 7.68 µM | 1.08 µM | 14 µM | 0.0409 µM | 4.37 µM | 0.0345 µM | 2.34 µM | 0.891 | 11.5 | 2.73 µM | 17.4 µM | 2.07 µM | 9.35 µM | 0.171 µM | 11.1 µM | 0.15 µM | 2.38 µM
CCSCC1CC(O)(c2ccccc2)C(c2ccccc2)C(c2ccc(Cl)cc2)O1 (centres undefined) | 1.42 µM | 4.57 µM | 2.27 µM | 5.37 µM | 1.73 µM | 9.82 µM | 1.61 µM | 3.63 µM | 2.5 | 7.33 | 1.79 µM | 4.19 µM | 2.27 µM | 5.4 µM | 1.56 µM | 3.73 µM | 1.65 µM | 3.05 µM
COc1ccc(C(=O)c2cc(OC)c(OC)c(OC)c2)cc1 | – | 66.7 µM | – | 31.7 µM | – | 20.2 µM | – | > 100 µM | – | > 13.7 | – | > 95.8 µM | – | > 100 µM | – | 0.196 µM | – | > 82.2 µM
Cc1ccc([N+](=O)[O-])cc1NC(=O)Nc1cccc(F)c1 | 3.45 µM | > 100 µM | 4.24 µM | > 100 µM | 3.38 µM | > 100 µM | 3.42 µM | 26.2 µM | 13.1 | 49.4 | 19.8 µM | > 100 µM | 4.19 µM | 17.7 µM | 2.46 µM | 11 µM | 5.78 µM | > 100 µM
COc1ccc(-c2cc(-c3cc(Cl)ccc3Cl)nc3n[nH]c(N)c23)cc1 | 30.8 µM | > 100 µM | 32 µM | > 100 µM | 30.9 µM | > 100 µM | 28.8 µM | > 100 µM | 34.5 | > 100 | 26 µM | > 100 µM | 41.2 µM | > 100 µM | 6.62 µM | > 100 µM | 20.1 µM | > 100 µM
NCCNc1c2c(c(NCCN)c3c(CO)c[nH]c13)C(=O)c1ccccc1C2=O | 7.59 µM | > 100 µM | 5.26 µM | 47.2 µM | 3.93 µM | > 100 µM | > 100 µM | > 100 µM | 5.96 | > 100 | 24.5 µM | > 100 µM | 20.7 µM | 75.1 µM | 6.16 µM | 43.8 µM | 8.32 µM | > 100 µM
CCN1CCN(Cc2ccc(-c3cc4c(N[C@H](C)c5ccccc5)ncnc4[nH]3)cc2)CC1 | 1.36 µM and 0.765 µM | 19.2 µM and > 10 µM | 3.5 µM and 8.1 µM | 33 µM and > 10 µM | 2.62 µM and 2.39 µM | 9.35 µM and > 10 µM | 1.71 µM and 3.08 µM | 13.1 µM and > 10 µM | 0.299 | 11.1 | 1.96 µM and 1.98 µM | 3.93 µM and 4.26 µM | 0.111 µM and 0.183 µM | 4.43 µM and > 10 µM | 1.62 µM and 3.09 µM | 4.2 µM and > 10 µM | 1.51 µM and 1.24 µM | 3.06 µM and 2.78 µM
CCNC(=O)[C@@H]1CCCN2C(=O)CC[C@H](NC(=O)[C@H](Cc3ccc(OP(=O)(O)O)cc3)NC(C)=O)C(=O)N12 | > 25 µM | > 25 µM | > 25 µM | > 25 µM | > 25 µM | > 25 µM | > 25 µM | > 25 µM | > 25 | > 25 | > 25 µM | > 25 µM | > 25 µM | > 25 µM | > 25 µM | > 25 µM | > 25 µM | > 25 µM
O=C(NC1CCN(Cc2ccccc2)CC1)c1cc(-c2ccncc2)nc2ccc(Cl)cc12 | 13.3 µM | 49.1 µM | 22.5 µM | > 72.9 µM | 4.26 µM | > 46.3 µM | 10.6 µM | 54.2 µM | 23.3 | > 100 | 10.5 µM | > 50.7 µM | 29.7 µM | > 91.8 µM | 17.4 µM | 53.5 µM | 12 µM | 29.6 µM
O=C(O)C/C(=C\c1ccco1)C(=O)O | – | > 100 µM | – | > 100 µM | – | > 100 µM | – | > 100 µM | – | > 100 | – | > 100 µM | – | > 100 µM | – | > 100 µM | – | > 100 µM
C=CC[n+]1c(/C=C/C=C2\N(C)c3ccccc3C2(C)C)sc2ccc(OC)cc21 | 0.0231 µM | 0.561 µM | 0.327 µM | 33.8 µM | 0.309 µM | 5.73 µM | 0.279 µM | 16.1 µM | 0.21 | 0.769 | 0.464 µM | 4.79 µM | 0.235 µM | 14.8 µM | 0.18 µM | 3 µM | 0.313 µM | 15.1 µM
FC(F)(F)c1nc(N2CCCC2)ncc1-c1nnnn1-c1ccc(Cl)cc1 | 5.29 µM | > 100 µM | 25 µM | > 100 µM | 5.07 µM | 25 µM | 13.4 µM | > 100 µM | 31.8 | > 100 | 20 µM | 74.8 µM | 15.4 µM | 75.6 µM | 19 µM | > 100 µM | 15.4 µM | 49.5 µM
CC(=O)N[C@@H](Cc1ccc(OP(=O)(O)O)cc1)C(=O)N[C@H]1CCC(=O)N2CCC[C@@H](C(=O)NCc3ccc(Cl)cc3)N2C1=O | > 25 µM | > 25 µM | > 25 µM | > 25 µM | > 25 µM | > 25 µM | > 25 µM | > 25 µM | > 25 | > 25 | > 25 µM | > 25 µM | > 25 µM | > 25 µM | > 25 µM | > 25 µM | > 25 µM | > 25 µM
N#Cc1c(-c2ccccc2)nc(SCC2CO2)nc1N1CCOCC1 (centres undefined) | 2.74 µM | 16.4 µM | 35.9 µM | > 100 µM | 10.1 µM | > 74.6 µM | 21 µM | > 100 µM | 8.25 | 57.3 | 5.11 µM | 76.5 µM | 4.88 µM | 99 µM | 2.67 µM | 28.2 µM | 9.49 µM | > 100 µM
COc1ccc2[nH]c(=O)c3c4ccccc4cn3c2c1 | 0.756 µM | 3.84 µM | 1.09 µM | 3.29 µM | 0.399 µM | 2.23 µM | 0.554 µM | 2.77 µM | 0.451 | 11.5 | 0.663 µM | 2.01 µM | 1.28 µM | 5.02 µM | 0.393 µM | 1.71 µM | 0.776 µM | 2.11 µM
Cc1c2cc[n+](C)cc2c(C)c2c1sc1ccccc12 | – | 3.67 µM | – | 4.8 µM | – | 5.57 µM | – | 3.46 µM | – | 14.3 | – | 6.15 µM | – | 68.5 µM | – | 0.783 µM | – | 22.1 µM
COc1c(C=O)c2c(c(OC)c1OC)-c1ccc(OC)c(=O)cc1[C@@H](NC(C)=O)CC2 | – | > 100 µM | – | > 14.4 µM | – | > 17.8 µM | – | > 100 µM | – | 23.1 | – | > 100 µM | – | > 100 µM | – | 0.449 µM | – | 49.8 µM
Cc1ccc(S(=O)(=O)OC2CCN(C)CC2)cc1 | – | 48.6 µM | – | > 100 µM | – | 36.6 µM | – | > 100 µM | – | > 100 | – | > 100 µM | – | > 100 µM | – | > 100 µM | – | > 100 µM
